Measurements reported in publication PMC6804243, “Small-Molecule Inhibition of UBE2T/FANCL-Mediated Ubiquitylation in the Fanconi Anemia Pathway” (ACS Chemical Biology, 2019).

The compounds below were run on T1, UBE2D1 / GST-FANCLRING (assay: Gel-based ubiquitylation assay, E2 = UBE2D1, E3 = GST-FANCLRING). Conditions: 30 min at 37 °C, Western blot.
T1 construct: the RING domain (residues 275–375) of the E3 FANCL (FANCLRING); His6 (N); made in house; host or cells: E. coli Rosetta (DE3)
Format: biochemical
Description: Figure 2 Gel-based ubiquitylation assays with confirmed HTRF hits. […] Western blots (WB) probed for GST or biotin as labeled. Reactions contained 20 nM His6-UBE1, 50 nM E2, 250 nM GST-E3, 500 nM biotinylated ubiquitin: (a) E2 = UBE2T, E3 = GST-FANCLRING, 30 min of reaction at 37 °C; (b) E2 = UBE2D1, E3 = GST-FANCLRING, 30 min of reaction at 37 °C; and (c) E2 = UBE2D1, E3 = GST-RNF8, 10 min of reaction at 37 °C.
In order to explore the selectivity of CU1, CU2, CU9, CU10, and CU12, we conducted a counter-screen against other E2 and E3 combinations. Since members of the UBE2D family of E2s are known to ubiquitylate multiple substrates in vitro,[13] a ubiquitylation assay featuring UBE2D1 and GST-FANCLRING was performed. With UBE2D1, multiple ubiquitylated GST-FANCLRING species could be observed (Figure 2b).
Purified protein was concentrated using a Vivaspin-6 concentrator with a 10 kDa MW cut-off (Vivascience) and flash-frozen in small aliquots for storage at […]
Cy5 labelling of ubiquitin. To a 5 mg/mL solution of recombinant human ubiquitin (Boston Biochem) in 0.1 M NaHCO3 pH 8.3, was added a 4-fold molar excess of Cyanine5 NHS ester (Lumiprobe). The reaction was incubated at 23 °C for 4 hours in the dark. The protein was separated from unreacted dye by passage through a PD-10 desalting column (GE Healthcare) equilibrated with PBS. Purified protein was concentrated using a Vivaspin-6 concentrator with a 3 kDa MW cut-off (Vivascience) and flash-frozen in small aliquots for storage […]
Homogeneous Time-Resolved Fluorescence (HTRF) Assay. GST-FANCLRING (200 nM) was incubated with anti-GST Tb (CisBio, #61GSTTL) (2.5 ng final) at room temperature for 30 minutes in assay buffer (50 mM Tris-HCl pH 8.0, 1 mM TCEP, 5 mM MgCl2, 0.005% Tween-20). Meanwhile, 10 μL of UBE2T in assay buffer (or assay buffer alone for no enzyme controls) was incubated in a white 384-well plate (Corning) with 20 nL DMSO or compound in DMSO. After 30 minutes, the GST-RINGRING solution was added to an equal volume solution containing His-UBE1 (Boston Biochem) (16 nM), Cy5-ubiquitin (400 nM), ATP (0.8 mM) in assay buffer. 10 μL of this solution was immediately added to each well of the 384 -well plate containing UBE2T or buffer. F inal concentrations: His -UBE1 (4 nM), UBE2T (6 nM), GST -RINGRING (50 nM), Cy5-ubiquitin (100 nM), ATP (0.2 mM), compound (10 or 20 μM) in 0.1 %
(v/v) DMSO. After a 10 minute incubation at 23 °C, 5 µL of a 50 mM EDTA solution were added to each well to stop the reaction. Signal was measured at λEx 340 nm and λEm 665 nm and 620 nm using a PHERAstar FS plate reader
(BMG Labtech). A ratio was calculated as [λEm(665)/λEm(620)] × 104 for each well and this was used to determine the percent inhibition for test compounds.
Gel-based ubiquitylation assays. Assays were carried out in a total volume of 10 µL containing 20 nM His6-UBE1 (Boston Biochem), 50 nM UBE2T, 250 nM GST-E3 and 500 nM biotinylated ubiquitin (Boston Biochem) in buffer (50 […]
Reaction mixtures were incubated for the indicated time at 37 °C and stopped by the addition of 2X reducing SDS -PAGE sample buffer, separated on NuPAGE Novex 4 –12% Bis/Tris gradient gels (Invitrogen) and visualized by Western blotting using the indicated antibodies (Table S3).
Cell culture. […]

| SMILES | ubiquitylation of GST-FANCLRING |
| --- | --- |
| NCCN1C(=O)CC[C@H]2CN(Cc3cccc(-c4ccco4)c3)CC[C@H]21 [CU1] | essentially abolished the ubiquitylation of GST-FANCLRING |
| CCN1CCN(c2cc(C)nc3nc(CN4CCCCC4C)nn23)CC1 (stereo not shown) [CU2] | essentially abolished the ubiquitylation of GST-FANCLRING |
| Cc1nnc(N(C)CC2CCN(CC(C)O)CC2)c(C#N)c1C (stereo not shown) [CU9] | essentially abolished the ubiquitylation of GST-FANCLRING |
| NC(=O)[C@@H]1CCCN1C(=O)c1cc(-n2cccc2)ccc1Cl [CU12] | essentially abolished the ubiquitylation of GST-FANCLRING |
